One test has as its target IDO1 (Homo sapiens, UniProt P14902). Put plainly: IDO1 Human Whole Blood Assay. The class given is cell-based. As to conditions: WBLD taken as whole blood; read-out: WBLD IC50. As for the experimental part: Compounds to be tested were serially diluted in ten 3-fold steps in DMSO starting from 10 mM. 3 μL of compound dilutions or DMSO alone were then dispensed from the dilution plate into a polypropylene 96-well assay plate containing 97 μL of RPMI medium using an Echo 555 acoustic liquid handler (Labcyte). LPS and IFNγ was prepared in RPMI medium to a 10× of final conc. (1000 ng/mL), final concentration is 100 ng/mL.
Human whole blood was drawn in sodium heparin coated tubes from healthy internal donors. 240 μL of blood was transferred to each of the wells of a v-bottom 96 well plate. 30 μL of compound was transferred from intermediate dilution plate, and incubated for 15 min. 30 μL from stimulants was then transferred to blood and mixed thoroughly. Plate was covered with breathable membrane and incubated at 37° C. for overnight (18 h).
On day 2, isotope labeled standard solutions of kunurenine and tryptophan was made in water at 10× concentration and 30 μL was added to the blood at 3 μM final concentration. The assay plates were centrifuged at 300×G for 10 min with no brake to separate plasma from red blood cells. 60 μL of plasma samples was removed without disturbing red blood cells. Plasma was diluted with RPMI in 1:1 ratio and proteins were precipitated out with two volumes of Acetonitrile. The plates were centrifuged at 4000×G for 60 min. 20 μL of supernatant was carefully transferred to a 384 well plate containing 40 μL of 0.1% formic acid in water and analyzed by LC/MS/MS.
LC/MS/MS analyses were performed using Thermo Fisher's LX4-TSQ Quantum Ultra system. This system consists of four Agilent binary high-performance liquid chromatography (HPLC) pumps and a TSQ Quantum Ultra triple quadrupole MS/MS instrument. For each sample, 5 μL were injected onto an Atlantis T3 column (2.1 mm×150 mm, 3 μm particle size) from Waters. The mobile phase gradient pumped at 0.8 mL/min was used to elute the analytes from the column at 25° C. The elution started at 0% B increasing linearly to 25% B at 6.5 min, holding at 25% for 1 min, re-equilibrating to 10 min. Mobile phase A consisted of 0.1% formic acid in water. Mobile phase B consisted of 0.1% of formic acid in acetonitrile. Data were acquired in positive mode using a HESI interface. The operational parameters for the TSQ Quantum Ultra instrument were a spray voltage of 4000 V, capillary temperature of 380° C., vaporizer temperature 400° C., shealth gas 60 arbitrary units, Aux gas 20 arbitrary units, tube lens 85 and collision gas 1.2 mTorr. SRM chromatograms of kynurenine (Q1: 209.2>Q3:94.0) and internal standard (Q1: 215.3>Q3:98.2) were collected for 90 sec. The peak area was integrated by Xcalibur Quan software. The ratios between the kynurenine generated in the reaction and 2D6-Kynurenine spiked-in internal standard were used to generate percentage inhibition and IC50 values. Compounds were titrated and IC50's were calculated by 4 parameter sigmoidal curve fitting formula.
Sequence of IDO1 (P14902 whole entry): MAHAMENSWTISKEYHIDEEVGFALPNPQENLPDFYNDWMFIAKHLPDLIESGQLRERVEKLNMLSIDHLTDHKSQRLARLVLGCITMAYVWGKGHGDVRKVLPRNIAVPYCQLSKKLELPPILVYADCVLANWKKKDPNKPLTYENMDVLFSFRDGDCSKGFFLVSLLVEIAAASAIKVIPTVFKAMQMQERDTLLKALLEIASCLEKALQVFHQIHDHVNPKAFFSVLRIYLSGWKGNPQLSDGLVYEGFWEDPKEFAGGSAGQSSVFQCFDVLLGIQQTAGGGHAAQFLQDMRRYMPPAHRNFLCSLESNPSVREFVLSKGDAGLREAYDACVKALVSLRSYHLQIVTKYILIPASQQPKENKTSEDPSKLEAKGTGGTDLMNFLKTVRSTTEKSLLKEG
As for `C[C@@H]1CN(C(=O)c2nn(CC(=O)N3CCC(Oc4cc(F)ccc4Br)CC3)c3c2CCC3)C[C@H](C)O1` [Example 91, 1-[4-(2-bromo-5-fluorophenoxy)piperidin-1-yl]-2-{3-[(2R,6S)-2,6-dimethylmorpholine-4-carbonyl]-5,6-dihydrocyclopenta[c]pyrazol-1(4H)-yl}ethan-1-one], the IC50 worked out at 86.6 nM.

Turning to `C[C@@H]1C[C@H](Oc2ccccc2Cl)CCN1C(=O)Cn1nc(C(=O)N2CC[C@@H](O)[C@@H](F)C2)c2c1C[C@H]1C[C@@H]21` [Example 52, 1-((2R,4R)-4-(2-chlorophenoxy)-2-methylpiperidin-1-yl)-2-((3bR,4aR)-3-((3S,4R)-3-fluoro-4-hydroxypiperidine-1-carbonyl)-3b,4,4a,5-tetrahydro-1H-cyclopropa[3,4]cyclopenta[1,2-c]pyrazol-1-yl)ethanone], the IC50 came out at 101 nM.

For the compound `O=C(c1nn(CC(=O)N2CCC(Oc3ccccc3Cl)C3CC32)c2c1[C@@H]1C[C@@H]1C2)N1CCC(OCCO)CC1` (single isomer, unassigned) [Example 171], the IC50 amounted to 150 nM.

For the compound `Cc1cc(F)ccc1OC1CCN(C(=O)Cn2nc(C(=O)N3CCC(F)(CO)CC3)c3c2CCC3)CC1` [Example 80, 2-[3-[4-fluoro-4-(hydroxymethyl)piperidine-1-carbonyl]-5,6-dihydro-4H-cyclopenta[c]pyrazol-1-yl]-1-[4-(4-fluoro-2-methyl-phenoxy)-1-piperidyl]ethanone], the IC50 came to 259 nM.

For `CC(=O)NC1CCN(C(=O)c2nn(CC(=O)N3CCC(Oc4ccccc4C)CC3)c3c2[C@@H]2C[C@@H]2C3)CC1` [Example 29, N-(1-((3bR,4aR)-1-(2-oxo-2-(4-(o-tolyloxy)piperidin-1-yl)ethyl)-3b,4,4a,5-tetrahydro-1H-cyclopropa[3,4]cyclopenta[1,2-c]pyrazole-3-carbonyl)piperidin-4-yl)acetamide], the IC50 is 114 nM.

Staying with this test, now noted: human whole blood, LPS and IFNγ 100 ng/mL, 18 h, kynurenine by LC/MS/MS; read-out: IDO1 human whole blood assay, IC50.
Regarding `CC(=O)NC1CCN(C(=O)c2nn(CC(=O)N3CCC(Oc4ccccc4C)CC3)c3c2[C@@H]2C[C@@H]2C3)CC1` [Example 29, N-(1-((3bR,4aR)-1-(2-oxo-2-(4-(o-tolyloxy)piperidin-1-yl)ethyl)-3b,4,4a,5-tetrahydro-1H-cyclopropa[3,4]cyclopenta[1,2-c]pyrazole-3-carbonyl)piperidin-4-yl)acetamide], the IC50 came out at 625 nM.

Values taken from patent US12576087B2, “Aryloxypiperidine pyrazole compounds as indoleamine 2,3-dioxygenase inhibitors” (Merck Sharp & Dohme LLC, priority 2018, dated 2026).
